± gives the expanded uncertainty stated by the source.
Experiment: molar heat capacity at constant pressure
Conditions: 101.33 kPa

O=P([O-])([O-])[O-].[Cs+].[Ni+2] [cesium nickel monophosphate]
Conditions	molar heat capacity at constant pressure [J/K/mol]
344.8 K, Crystal 2, DSC	162.96 ± 7.5
345.8 K, Crystal 2, DSC	163.79 ± 7.5
346.8 K, Crystal 2, DSC	163.79 ± 7.5
347.8 K, Crystal 2, DSC	163.79 ± 7.5
348.8 K, Crystal 2, DSC	164.63 ± 7.5
349.8 K, Crystal 2, DSC	165.46 ± 7.5
350 K, Crystal 2, Small (less than 1 g) adiabatic calorimetry	165.04 ± 4.2
350.8 K, Crystal 2, DSC	165.46 ± 7.5
351.8 K, Crystal 2, DSC	165.46 ± 7.5
352.8 K, Crystal 2, DSC	166.29 ± 7.5
353.8 K, Crystal 2, DSC	167.12 ± 7.5
354.8 K, Crystal 2, DSC	167.12 ± 7.5
355.8 K, Crystal 2, DSC	167.12 ± 7.5
356.8 K, Crystal 2, DSC	167.95 ± 7.5
357.8 K, Crystal 2, DSC	167.95 ± 7.5
358.8 K, Crystal 2, DSC	168.78 ± 7.5
359.8 K, Crystal 2, DSC	168.78 ± 7.5
360 K, Crystal 2, Small (less than 1 g) adiabatic calorimetry	169.2 ± 4.2
360.8 K, Crystal 2, DSC	169.61 ± 7.5
361.8 K, Crystal 2, DSC	170.45 ± 7.5
362.8 K, Crystal 2, DSC	170.45 ± 7.5
363.8 K, Crystal 2, DSC	170.45 ± 7.5
364.8 K, Crystal 2, DSC	171.28 ± 7.5
365.8 K, Crystal 2, DSC	172.11 ± 7.5
366.8 K, Crystal 2, DSC	172.11 ± 7.5
367.8 K, Crystal 2, DSC	172.94 ± 7.5
368.8 K, Crystal 2, DSC	172.94 ± 7.5
369.8 K, Crystal 2, DSC	172.94 ± 7.5
370 K, Crystal 2, Small (less than 1 g) adiabatic calorimetry	173.36 ± 4.4
370.8 K, Crystal 2, DSC	173.77 ± 7.5
371.8 K, Crystal 2, DSC	173.77 ± 7.5
372.8 K, Crystal 2, DSC	174.6 ± 7.5
373.8 K, Crystal 2, DSC	175.44 ± 7.5
374.8 K, Crystal 2, DSC	177.1 ± 7.5
376.3 K, Crystal 2, DSC	180.42 ± 7.5
380 K, Crystal 2, Small (less than 1 g) adiabatic calorimetry	176.27 ± 4.5
382.8 K, Crystal 1, DSC	178.26 ± 7.7
382.8 K, Crystal 2, Small (less than 1 g) adiabatic calorimetry	176.68 ± 4.5
387.8 K, Crystal 1, DSC	183.75 ± 8.3
388.8 K, Crystal 1, DSC	179.59 ± 7.5
389.8 K, Crystal 1, DSC	177.93 ± 7.5
390 K, Crystal 1, DSC	177.1 ± 7.6
390.8 K, Crystal 1, DSC	177.1 ± 7.5
391.8 K, Crystal 1, DSC	177.1 ± 7.5
392.8 K, Crystal 1, DSC	177.1 ± 7.5
393.8 K, Crystal 1, DSC	177.1 ± 7.5
394.8 K, Crystal 1, DSC	176.27 ± 7.5
395.8 K, Crystal 1, DSC	177.1 ± 7.5
396.8 K, Crystal 1, DSC	176.27 ± 7.5
397.8 K, Crystal 1, DSC	176.27 ± 7.5
398.8 K, Crystal 1, DSC	176.27 ± 7.5
399.8 K, Crystal 1, DSC	176.27 ± 7.5
400 K, Crystal 1, DSC	175.85 ± 7.6
400.8 K, Crystal 1, DSC	175.44 ± 7.5
402.8 K, Crystal 1, DSC	175.44 ± 7.5
404.8 K, Crystal 1, DSC	174.6 ± 7.5
407.1 K, Crystal 1, DSC	174.6 ± 7.5
408.8 K, Crystal 1, DSC	174.6 ± 7.5
410 K, Crystal 1, DSC	175.02 ± 7.6
410.8 K, Crystal 1, DSC	174.6 ± 7.5
412.8 K, Crystal 1, DSC	174.6 ± 7.5
414.8 K, Crystal 1, DSC	174.6 ± 7.5
416.8 K, Crystal 1, DSC	174.6 ± 7.5
418.8 K, Crystal 1, DSC	174.6 ± 7.5
420 K, Crystal 1, DSC	174.52 ± 7.6
420.8 K, Crystal 1, DSC	174.6 ± 7.5
422.8 K, Crystal 1, DSC	174.6 ± 7.5
424.8 K, Crystal 1, DSC	174.6 ± 7.5
426.8 K, Crystal 1, DSC	174.6 ± 7.5
428.8 K, Crystal 1, DSC	174.6 ± 7.5
430 K, Crystal 1, DSC	174.27 ± 7.6
430.8 K, Crystal 1, DSC	174.6 ± 7.5
432.8 K, Crystal 1, DSC	174.6 ± 7.5
434.8 K, Crystal 1, DSC	174.6 ± 7.5
436.8 K, Crystal 1, DSC	174.6 ± 7.5
438.8 K, Crystal 1, DSC	174.6 ± 7.5
440 K, Crystal 1, DSC	174.27 ± 7.6
440.8 K, Crystal 1, DSC	173.77 ± 7.5
442.8 K, Crystal 1, DSC	174.6 ± 7.5
444.8 K, Crystal 1, DSC	174.6 ± 7.5
446.8 K, Crystal 1, DSC	174.6 ± 7.5
448.8 K, Crystal 1, DSC	173.77 ± 7.5
450 K, Crystal 1, DSC	174.44 ± 7.6
450.8 K, Crystal 1, DSC	173.77 ± 7.5
452.8 K, Crystal 1, DSC	173.77 ± 7.5
454.8 K, Crystal 1, DSC	174.6 ± 7.5
456.8 K, Crystal 1, DSC	173.77 ± 7.5
458.8 K, Crystal 1, DSC	174.6 ± 7.5
460 K, Crystal 1, DSC	174.77 ± 7.6
460.8 K, Crystal 1, DSC	174.6 ± 7.5
462.8 K, Crystal 1, DSC	174.6 ± 7.5
464.8 K, Crystal 1, DSC	174.6 ± 7.5
466.8 K, Crystal 1, DSC	174.6 ± 7.5
468.8 K, Crystal 1, DSC	175.44 ± 7.5
470 K, Crystal 1, DSC	175.19 ± 7.6
470.8 K, Crystal 1, DSC	175.44 ± 7.5
472.8 K, Crystal 1, DSC	175.44 ± 7.5
474.8 K, Crystal 1, DSC	175.44 ± 7.5
476.8 K, Crystal 1, DSC	176.27 ± 7.5
478.8 K, Crystal 1, DSC	176.27 ± 7.5
480 K, Crystal 1, DSC	175.68 ± 7.6
480.8 K, Crystal 1, DSC	176.27 ± 7.5
482.8 K, Crystal 1, DSC	176.27 ± 7.5
484.8 K, Crystal 1, DSC	176.27 ± 7.5
486.8 K, Crystal 1, DSC	176.27 ± 7.5
488.8 K, Crystal 1, DSC	176.27 ± 7.5
490 K, Crystal 1, DSC	176.18 ± 7.6
490.8 K, Crystal 1, DSC	177.1 ± 7.5
492.8 K, Crystal 1, DSC	177.1 ± 7.5
494.8 K, Crystal 1, DSC	177.1 ± 7.5
496.8 K, Crystal 1, DSC	177.1 ± 7.5
498.8 K, Crystal 1, DSC	177.1 ± 7.5
500 K, Crystal 1, DSC	176.77 ± 7.6
500.8 K, Crystal 1, DSC	177.1 ± 7.5
502.8 K, Crystal 1, DSC	177.1 ± 7.5
504.8 K, Crystal 1, DSC	177.1 ± 7.5
506.8 K, Crystal 1, DSC	177.1 ± 7.5
508.8 K, Crystal 1, DSC	177.1 ± 7.5
510 K, Crystal 1, DSC	177.26 ± 7.6
510.8 K, Crystal 1, DSC	177.1 ± 7.5
512.8 K, Crystal 1, DSC	177.1 ± 7.5
514.8 K, Crystal 1, DSC	177.1 ± 7.5
516.8 K, Crystal 1, DSC	177.1 ± 7.5
518.8 K, Crystal 1, DSC	177.1 ± 7.5
520 K, Crystal 1, DSC	177.76 ± 7.7
520.8 K, Crystal 1, DSC	177.93 ± 7.5
522.8 K, Crystal 1, DSC	177.93 ± 7.5
524.8 K, Crystal 1, DSC	177.93 ± 7.5
526.8 K, Crystal 1, DSC	177.93 ± 7.5
528.8 K, Crystal 1, DSC	177.93 ± 7.5
530 K, Crystal 1, DSC	178.26 ± 7.7
530.8 K, Crystal 1, DSC	177.93 ± 7.5
532.8 K, Crystal 1, DSC	177.93 ± 7.5
534.8 K, Crystal 1, DSC	177.93 ± 7.5
536.8 K, Crystal 1, DSC	177.93 ± 7.5
538.8 K, Crystal 1, DSC	178.76 ± 7.5
540 K, Crystal 1, DSC	178.76 ± 7.7
540.8 K, Crystal 1, DSC	178.76 ± 7.5
542.8 K, Crystal 1, DSC	178.76 ± 7.5
544.8 K, Crystal 1, DSC	178.76 ± 7.5
546.8 K, Crystal 1, DSC	178.76 ± 7.5
548.8 K, Crystal 1, DSC	178.76 ± 7.5
550 K, Crystal 1, DSC	179.18 ± 7.7
550.8 K, Crystal 1, DSC	178.76 ± 7.5
552.8 K, Crystal 1, DSC	178.76 ± 7.5
554.8 K, Crystal 1, DSC	179.59 ± 7.5
556.8 K, Crystal 1, DSC	179.59 ± 7.5
558.8 K, Crystal 1, DSC	179.59 ± 7.5
560 K, Crystal 1, DSC	179.59 ± 7.8
560.8 K, Crystal 1, DSC	179.59 ± 7.5
562.8 K, Crystal 1, DSC	179.59 ± 7.5
564.8 K, Crystal 1, DSC	179.59 ± 7.5
566.8 K, Crystal 1, DSC	180.42 ± 7.5
568.8 K, Crystal 1, DSC	180.42 ± 7.5
570 K, Crystal 1, DSC	180.01 ± 7.8
570.8 K, Crystal 1, DSC	180.42 ± 7.5
572.8 K, Crystal 1, DSC	180.42 ± 7.5
574.8 K, Crystal 1, DSC	180.42 ± 7.5
576.8 K, Crystal 1, DSC	180.42 ± 7.5
578.8 K, Crystal 1, DSC	180.42 ± 7.5
580 K, Crystal 1, DSC	180.34 ± 7.8
580.8 K, Crystal 1, DSC	180.42 ± 7.5
582.8 K, Crystal 1, DSC	180.42 ± 7.5
584.8 K, Crystal 1, DSC	180.42 ± 7.5
586.8 K, Crystal 1, DSC	180.42 ± 7.5
588.8 K, Crystal 1, DSC	180.42 ± 7.5
590 K, Crystal 1, DSC	180.76 ± 7.8
590.8 K, Crystal 1, DSC	181.26 ± 7.5
592.8 K, Crystal 1, DSC	181.26 ± 7.5
594.8 K, Crystal 1, DSC	181.26 ± 7.5
596.8 K, Crystal 1, DSC	181.26 ± 7.5
598.8 K, Crystal 1, DSC	181.26 ± 7.5
600 K, Crystal 1, DSC	181.26 ± 7.8
600.8 K, Crystal 1, DSC	181.26 ± 7.5
602.8 K, Crystal 1, DSC	181.26 ± 7.5
604.8 K, Crystal 1, DSC	181.26 ± 7.5
606.8 K, Crystal 1, DSC	181.26 ± 7.5
608.8 K, Crystal 1, DSC	182.09 ± 7.5
610 K, Crystal 1, DSC	181.84 ± 7.9
610.8 K, Crystal 1, DSC	182.09 ± 7.5
612.8 K, Crystal 1, DSC	182.09 ± 7.5
614.8 K, Crystal 1, DSC	182.09 ± 7.5
616.8 K, Crystal 1, DSC	182.09 ± 7.5
618.8 K, Crystal 1, DSC	182.09 ± 7.5
620 K, Crystal 1, DSC	182.5 ± 7.9
620.8 K, Crystal 1, DSC	182.09 ± 7.5
622.8 K, Crystal 1, DSC	182.92 ± 8.3
624.8 K, Crystal 1, DSC	182.92 ± 8.3
626.8 K, Crystal 1, DSC	182.92 ± 8.3
628.8 K, Crystal 1, DSC	182.92 ± 8.3
630 K, Crystal 1, DSC	183.25 ± 7.9
630.8 K, Crystal 1, DSC	182.92 ± 8.3
632.8 K, Crystal 1, DSC	183.75 ± 8.3
634.8 K, Crystal 1, DSC	183.75 ± 8.3
636.8 K, Crystal 1, DSC	183.75 ± 8.3
638.8 K, Crystal 1, DSC	184.58 ± 8.3
640 K, Crystal 1, DSC	184.33 ± 8
640.8 K, Crystal 1, DSC	184.58 ± 8.3
642.8 K, Crystal 1, DSC	184.58 ± 8.3
644.8 K, Crystal 1, DSC	184.58 ± 8.3
646.8 K, Crystal 1, DSC	185.41 ± 8.3
648.8 K, Crystal 1, DSC	185.41 ± 8.3
650 K, Crystal 1, DSC	185.58 ± 8.1

Reference: the NIST ThermoML archive (doi:10.1016/j.jct.2018.10.006)
